In general, IC50 refers to the midpoint of a concentration-inhibition curve. High values mean weaker potency, low ones greater potency.

In ChEMBL document CHEMBL5365407, “Design, synthesis and biological evaluation of nitric oxide-releasing 5-cyano-6-phenyl-2, 4-disubstituted pyrimidine derivatives” (Bioorg Med Chem Lett, 2023) one finds IC50, Activity and viability data, which are given here for six compounds.

Activity calls are given as the source filed them. No cut-off for these calls is given here.

One test concerns ECa-109 cell line. Description: Antiproliferative activity against human Eca-109 cells measured after 72 hrs by MTT assay. Type of test: functional, cell-based. Particulars: ECa-109, 72 h.
Test [1] has as its system MGC-803. As to the kind of experiment: cells. The following applies: Homo sapiens, MGC-803, 72 h.
Description: Antiproliferative activity against human MGC-803 cells measured after 72 hrs by MTT assay
A further test concerns MCF7. Description: cells. Particulars: Homo sapiens, MCF7, 72 h.
Another test deals with PC-3. Description: Antiproliferative activity against human PC-3 cells measured after 72 hrs by MTT assay. Format: functional, cell-based. The following applies: PC-3, 72 h. (Tetrazolium assays rely on reduction of a dye to a coloured formazan, in cell work by metabolically active cells.)
Test [2] has as its system MGC-803. As to the kind of experiment: Antiproliferative activity against human MGC-803 cells assessed as reduction in colony area at 0.5 to 2 uM by crystal violet staining based assay. Format: functional, cell-based. The following applies: dose 0.5-2 µM.
Test [3] deals with MGC-803. As to the kind of experiment: Induction of apoptosis in human MGC-803 cells assessed as necrotic cells at 2 uM by Annexin V-FITC/PI staining based flow cytometric analysis (reference value: 0.69%). Format: functional. On the technique in general: Flow cytometry measures light scatter and fluorescence of single cells or particles in a stream.
Test [4] relates to MGC-803. Description: Induction of apoptosis in human MGC-803 cells assessed as early apoptotic cells at 0.5 uM by Annexin V-FITC/PI staining based flow cytometric analysis (reference value: 2.79%). Type of test: functional.
The test system of test [5] is MGC-803. As to the kind of experiment: Induction of cell cycle arrest in human MGC-803 cells assessed as accumulation of cells at S phase at 0.5 uM incubated for 24 hrs by PI staining based flow cytometry analysis (reference value: 29.00 %). Type of test: functional.
In test [6] the test system is MGC-803. As to the kind of experiment: Induction of cell cycle arrest in human MGC-803 cells assessed as accumulation of cells at G0/G1 phase at 2 uM incubated for 24 hrs by PI staining based flow cytometry analysis (reference value: 56.68 %). Format: functional.
In test [7] the test system is MGC-803. Description: Induction of morphological changes in human MGC-803 cells assessed as appearance of broken cell at 0.5 to 2 uM incubated for 48 hrs by DAPI staining based fluorescence microscopy. Type of test: functional. Particulars: dose 0.5-2 µM.
For test [8], the system named is MGC-803. Description: Antiproliferative activity against human MGC-803 cells assessed as decrease in number of colonies by crystal violet staining based assay. Particulars: dose 0.5-2 µM. Type of test: functional, cell-based.
Test [9] has as its system MGC-803. Description: Induction of apoptosis in human MGC-803 cells assessed as necrotic cells at 1 uM by Annexin V-FITC/PI staining based flow cytometric analysis (reference value: 0.69%). Type of test: functional.
For test [10], the system named is MGC-803. Description: Induction of apoptosis in human MGC-803 cells by Annexin V-FITC/PI staining based flow cytometric analysis. Type of test: functional, cell-based. Particulars: dose 0.5-2 µM.
Test [11] relates to MGC-803. As to the kind of experiment: Induction of apoptosis in human MGC-803 cells assessed as late apoptotic cells at 0.5 uM by Annexin V-FITC/PI staining based flow cytometric analysis (reference value: 2.14 %). Format: functional.
Test [12] has as its system MGC-803. Description: Induction of apoptosis in human MGC-803 cells assessed as late apoptotic cells at 1 uM by Annexin V-FITC/PI staining based flow cytometric analysis (reference value: 2.14 %). Type of test: functional.
The nature of test [13]: Induction of NO release in phosphate buffer containing excess L-cysteine measured up to 14 hrs by Griess assay. Format: functional.
Test [14] has as its system MGC-803. Description: Induction of apoptosis in human MGC-803 cells assessed as viable cells at 0.5 uM by Annexin V-FITC/PI staining based flow cytometric analysis (reference value: 94.4%). Type of test: functional. The following applies: read-out: Activity.
In test [15] the test system is MGC-803. As to the kind of experiment: Induction of apoptosis in human MGC-803 cells assessed as early apoptotic cells at 1 uM by Annexin V-FITC/PI staining based flow cytometric analysis (reference value: 2.79%). Type of test: functional.
For test [16], the system named is MGC-803. As to the kind of experiment: Induction of cell cycle arrest in human MGC-803 cells assessed as accumulation of cells at G2/M phase at 2 uM incubated for 24 hrs by PI staining based flow cytometry analysis (reference value: 14.32 %). Format: functional.
Test [17] concerns MGC-803. As to the kind of experiment: Induction of cell cycle arrest in human MGC-803 cells assessed as accumulation of cells at G2/M phase at 0.5 uM incubated for 24 hrs by PI staining based flow cytometry analysis (reference value: 14.32 %). Type of test: functional.
In test [18] the test system is MGC-803. As to the kind of experiment: Induction of cell cycle arrest in human MGC-803 cells assessed as accumulation of cells at G2/M phase at 1 uM incubated for 24 hrs by PI staining based flow cytometry analysis (reference value: 14.32 %). Type of test: functional.
Test [19] relates to MGC-803. As to the kind of experiment: Induction of apoptosis in human MGC-803 cells assessed as viable cells at 1 uM by Annexin V-FITC/PI staining based flow cytometric analysis (reference value: 94.4%). Type of test: functional. The following applies: read-out: Activity.
In test [20] the test system is MGC-803. Description: Induction of apoptosis in human MGC-803 cells assessed as necrotic cells at 0.5 uM by Annexin V-FITC/PI staining based flow cytometric analysis (reference value: 0.69%). Format: functional.
Test [21] concerns MGC-803. Description: Induction of morphological changes in human MGC-803 cells assessed as nuclear shrinkage at 0.5 to 2 uM incubated for 48 hrs by DAPI staining based fluorescence microscopy. Format: functional, cell-based. Particulars: dose 0.5-2 µM.
Test [22] relates to MGC-803. As to the kind of experiment: Induction of cell cycle arrest in human MGC-803 cells assessed as accumulation of cells at S phase at 2 uM incubated for 24 hrs by PI staining based flow cytometry analysis (reference value: 29.00 %). Type of test: functional.
In test [23] the test system is MGC-803. As to the kind of experiment: Induction of morphological changes in human MGC-803 cells assessed as appearance of dense and concentrated granules at 0.5 to 2 uM for 48 hrs by DAPI staining based fluorescence microscopy. Type of test: functional, cell-based. The following applies: dose 0.5-2 µM.
For test [24], the system named is MGC-803. Description: Antiproliferative activity against human MGC-803 assessed as cell survival by MTT assay relative to control. Type of test: functional.
Test [25] deals with MGC-803. Description: Induction of apoptosis in human MGC-803 cells assessed as late apoptotic cells at 2 uM by Annexin V-FITC/PI staining based flow cytometric analysis (reference value: 2.14 %). Format: functional.
Test [26] concerns MGC-803. Description: Antiproliferative activity against human MGC-803 assessed as reduction in cell survival measured after 24 hrs in presence of NO scavenger hemoglobin at 1 to 20 uM by MTT assay. Type of test: functional, cell-based.
The test system of test [27] is MGC-803. Description: Induction of apoptosis in human MGC-803 cells assessed as early apoptotic cells at 2 uM by Annexin V-FITC/PI staining based flow cytometric analysis (reference value: 2.79%). Format: functional.
Test [28] concerns MGC-803. As to the kind of experiment: Induction of cell cycle arrest in human MGC-803 cells assessed as accumulation of cells at S phase at 1 uM incubated for 24 hrs by PI staining based flow cytometry analysis (reference value: 29.00 %). Format: functional.
Test [29] relates to MGC-803. Description: Induction of morphological changes in human MGC-803 cells assessed as nuclear condensation at 0.5 to 2 uM incubated for 48 hrs by DAPI staining based fluorescence microscopy. Format: functional, cell-based. Particulars: dose 0.5-2 µM.
Test [30] has as its system MGC-803. As to the kind of experiment: Induction of apoptosis in human MGC-803 cells assessed as viable cells at 2 uM by Annexin V-FITC/PI staining based flow cytometric analysis (reference value: 94.4%). The following applies: read-out: Activity. Type of test: functional.
Test [31] has as its system MGC-803. As to the kind of experiment: Induction of reactive oxygen species generation in human MGC-803 cells by DCFH-DA staining fluorescence assay. Type of test: functional, cell-based. The following applies: dose 0.5-2 µM.
For test [32], the system named is MGC-803. Description: Induction of cell cycle arrest in human MGC-803 cells assessed as accumulation of cells at G0/G1 phase at 1 uM incubated for 24 hrs by PI staining based flow cytometry analysis (reference value: 56.68 %). Format: functional.
For test [33], the system named is MGC-803. As to the kind of experiment: Induction of cell cycle arrest in human MGC-803 cells assessed as accumulation of cells at G0/G1 phase at 0.5 uM incubated for 24 hrs by PI staining based flow cytometry analysis (reference value: 56.68 %). Format: functional.

Description for MCF7: Antiproliferative activity against human MCF7 cells measured after 72 hrs by MTT assay

With `N#Cc1c(Nc2ccc(F)cc2)nc(SCC(=O)N2CCN(CCOc3no[n+]([O-])c3S(=O)(=O)c3ccccc3)CC2)nc1-c1ccccc1`, the IC50 came out at 2480 nM with ECa-109 cell line, 1560 nM in the test with MGC-803 [1], 2230 nM in the test with MCF7 and 1390 nM in the test on PC-3.
As for `CCc1ccc(Nc2nc(SCC(=O)N3CCN(CCOc4no[n+]([O-])c4S(=O)(=O)c4ccccc4)CC3)nc(-c3ccccc3)c2C#N)cc1`, the IC50 amounted to 5970 nM with ECa-109 cell line, 1450 nM with MGC-803 [1], 3390 nM in the test with MCF7 and 2720 nM with PC-3.
On to `COc1cc(Nc2nc(SCC(=O)N3CCN(CCOc4no[n+]([O-])c4S(=O)(=O)c4ccccc4)CC3)nc(-c3ccccc3)c2C#N)cc(OC)c1OC`, for which the result (in the test with MGC-803 [2]; in the test on MGC-803 [7]; in test [13]; in the test on MGC-803 [21]; in the test with MGC-803 [23]; with MGC-803 [29]) was Active. The Activity in the test on MGC-803 [3] is 2.69%; with MGC-803 [4], 6.5%; with MGC-803 [5], 24.83%; in the test with MGC-803 [6], 74.33%; in the test on MGC-803 [8] it was “Dose-Dependent Effect”; in the test with MGC-803 [9] it was 3.21%. The Activity result with MGC-803 [10] was “Dose-Dependent Effect”; in the test on MGC-803 [11], 15.1%; in the test with MGC-803 [12], 24%; in the test on MGC-803 [15], 7.71%; with MGC-803 [16] it was 10.4%; with MGC-803 [17] it was 14.58%. The Activity amounted to 14.43% in the test with MGC-803 [18]; 3.22% with MGC-803 [20]; 15.27% with MGC-803 [22]; 20% in the test with MGC-803 [24]; 28.7% in the test on MGC-803 [25]; 10.4% in the test on MGC-803 [27]. For the same compound, the Activity in the test on MGC-803 [28] was 19.71%; in the test with MGC-803 [31], “Dose-Dependent Effect”; with MGC-803 [32], 65.87%; with MGC-803 [33], 60.59%. For the same compound, the 50% inhibitory concentration (IC50) worked out at 2210 nM in the test on ECa-109 cell line, 950 nM with MGC-803 [1], 2030 nM with MCF7 and 1140 nM in the test with PC-3. Besides, the viability at 0.5 µM with MGC-803 [14] was 75.2%. The viability at 1 µM in the test with MGC-803 [19] is 65.1%. For the same compound, in the test on MGC-803 [26], the outcome was inactive. Further, the viability at 2 µM in the test with MGC-803 [30] is 58.3%.
Turning to `N#Cc1c(Nc2ccc(F)c(Cl)c2)nc(SCC(=O)N2CCN(CCOc3no[n+]([O-])c3S(=O)(=O)c3ccccc3)CC2)nc1-c1ccccc1`, the IC50 amounted to 2810 nM in the test with ECa-109 cell line, 1070 nM in the test on MGC-803 [1], 3360 nM with MCF7 and 1970 nM in the test on PC-3.
Taken in the same sequence, the figures for `CCc1ccccc1Nc1nc(SCC(=O)N2CCN(CCOc3no[n+]([O-])c3S(=O)(=O)c3ccccc3)CC2)nc(-c2ccccc2)c1C#N` were 4420 nM, 2010 nM, 2600 nM and 2930 nM.
For the compound `N#Cc1c(-c2ccccc2)nc(SCC(=O)N2CCN(CCOc3no[n+]([O-])c3S(=O)(=O)c3ccccc3)CC2)nc1N1CCOCC1`, in [13], the outcome was Active. The IC50 worked out at 6920 nM in the test on ECa-109 cell line, 8130 nM in the test with MGC-803 [1], 8950 nM in the test with MCF7 and 6980 nM in the test with PC-3.
